The values that follow come from article PMC9667932, “Isobactins: O-acyl isopeptide prodrugs of teixobactin and teixobactin derivatives” (Chemical Science, 2022).

Converted amounts (≈) assume the structure as drawn. Read-outs that look alike come from different tables or passages of the source. Marks after values point to notes of the source that are not given here.

Data set [1] deals with Escherichia coli ATCC 10798. The data set can be described thus: microbe, parasite or virus in culture. The source says:
(§1) We used methicillin-susceptible and methicillin-resistant S. aureus as representative pathogens and B. subtilis and S. epidermidis as additional Gram-positive bacteria, and we used E. coli as a Gram-negative control.

Data set [2] relates to Staphylococcus epidermidis ATCC 14990. Nature of the data set: microbe, parasite or virus in culture.
From the text: as §1

Data set [3] deals with Bacillus subtilis ATCC 6051. Nature of the data set: microbe, parasite or virus in culture.
From the text: as §1

Data set [4] has as its system Staphylococcus aureus (MRSA) ATCC 700698. The data set can be described thus: microbe, parasite or virus in culture.
From the text: as §1

Data set [5] concerns Staphylococcus aureus (MSSA) ATCC 29213. Nature of the data set: microbe, parasite or virus in culture. The conditions noted are these: ATCC29213|MSSA.
From the text: as §1

Another data set has as its system human red blood cells. The data set can be described thus: Hemolytic assay. In kind it is cell-based. The text has this:
We evaluated the hemolytic activity of the O-acyl isopeptide prodrugs and the corresponding teixobactin analogues with human red blood cells (Fig. S14–S21 ^†). We used Triton X-100 and melittin as positive controls and vancomycin and water (vehicle) as negative controls in the hemolysis assays.[9,25,26] […] In contrast, 0.002% polysorbate 80 had no effect on the hemolytic activity of Lys10–teixobactin and Leu10–teixobactin and little effect on the corresponding O-acyl isopeptide prodrug analogues. When we performed hemolysis assays with teixobactin, we observed no hemolysis up to 100 μg mL^−1 without polysorbate 80 and modest hemolysis (4%) at 100 μg mL^−1 with 0.002% polysorbate 80. We observed no hemolysis with vancomycin at concentrations up to 100 μg mL^−1, and we observed 26–30% hemolysis with 1.25 μg mL^−1 melittin with and without 0.002% polysorbate 80.

The test system of data set [6] is four Gram-positive bacteria. The conditions noted are these: Table 2.
From the text: as §1

Setting [7] is: in the presence of 0.002% polysorbate 80.

As for `CN[C@H](CC(C)C)C(=O)N[C@H]1C(=O)N[C@@H](CC(N)=O)C(=O)N[C@H]2C(=O)N[C@H]3C(=O)N[C@H](C(=O)N[C@H](C(=O)O)c4cc(O)cc(O)c4-c4cc3ccc4O)[C@H](O)c3ccc(c(Cl)c3)Oc3cc2cc(c3O[C@@H]2O[C@H](CO)[C@@H](O)[C@H](O)[C@H]2O[C@H]2C[C@](C)(N)[C@H](O)[C@H](C)O2)Oc2ccc(cc2Cl)[C@H]1O` [Vancomycin, vancomycin, reference compound], the MIC in data set [1] (ATCC10798, read-out: MIC Escherichia coli ATCC 10798, culture media containing 0% polysorbate 80) is > 32 µg/mL; in data set [1] (ATCC10798, read-out: MIC Escherichia coli ATCC 10798, culture media containing 0.002% polysorbate 80) it was > 8 µg/mL; in data set [2] (ATCC14990, read-out: MIC Staphylococcus epidermidis ATCC 14990, culture media containing 0% polysorbate 80), 1 µg/mL (≈ 0.69 µM); in data set [2] (ATCC14990, read-out: MIC Staphylococcus epidermidis ATCC 14990, culture media containing 0.002% polysorbate 80), 2 µg/mL (≈ 1.38 µM); in data set [3] (ATCC6051, read-out: MIC Bacillus subtilis ATCC 6051, culture media containing 0% polysorbate 80) it was 0.125 to 0.25 µg/mL (≈ 0.0863 to 0.173 µM); in data set [3] (ATCC6051, read-out: MIC Bacillus subtilis ATCC 6051, culture media containing 0.002% polysorbate 80) it was 0.5 µg/mL (≈ 0.345 µM). Moreover, the MIC in data set [4] (Staphylococcus aureus, ATCC700698|MRSA, read-out: MIC Staphylococcus aureus (MRSA) ATCC 700698) stood at 2 µg/mL (≈ 1.38 µM); in data set [5] (read-out: MIC Staphylococcus aureus (MSSA) ATCC 29213, culture media containing 0% polysorbate 80) it was 0.5 µg/mL (≈ 0.345 µM); in data set [5] (read-out: MIC Staphylococcus aureus (MSSA) ATCC 29213, culture media containing 0.002% polysorbate 80) it was 1 µg/mL (≈ 0.69 µM). The “MIC Staphylococcus aureus (MRSA) ATCC 700698” value in data set [4] (culture media containing 0.002% polysorbate 80) is 2 ^b μg mL^−1. In the data set with human red blood cells (negative control), the “Hemolysis at concentrations up to 100 μg mL^−1” value was “no hemolysis”. Also, the “MICs (range over the Gram-positive bacteria)” value in data set [6] (setting [7]) was in the range of 0.125 to 2 µg/mL.

Take melittin [reference compound]: the “Hemolysis at 1.25 μg mL^−1” value with human red blood cells (with and without 0.002% polysorbate 80, positive control) is 26–30%.

With `CC[C@H](C)[C@H](NC(=O)[C@@H](Cc1ccccc1)NC)C(=O)N[C@@H](CO)C(=O)N[C@H](CCC(N)=O)C(=O)N[C@@H](C(=O)N[C@H](C(=O)N[C@@H](CO)C(=O)N[C@H]1C(=O)N[C@@H](C)C(=O)N[C@@H](CC(C)C)C(=O)N[C@@H]([C@@H](C)CC)C(=O)O[C@H]1C)[C@@H](C)CC)[C@@H](C)CC` [Leu10–teixobactin], the “MIC Staphylococcus aureus (MRSA) ATCC 700698” value in data set [4] (ATCC 700698) was 2 ^a μg mL^−1. In the data set with human red blood cells, the “Effect of 0.002% polysorbate 80 on the hemolytic activity” value is recorded as “no effect”.

Turning to `CC[C@H](C)[C@H](NC(=O)[C@@H](Cc1ccccc1)NC)C(=O)N[C@@H](CO)C(=O)N[C@H](CCC(N)=O)C(=O)N[C@@H](C(=O)N[C@H](C(=O)N[C@@H](CO)C(=O)N[C@H]1C(=O)N[C@@H](C)C(=O)N[C@@H](CCCCN)C(=O)N[C@@H]([C@@H](C)CC)C(=O)O[C@H]1C)[C@@H](C)CC)[C@@H](C)CC` [Lys10–teixobactin], the “Effect of 0.002% polysorbate 80 on the hemolytic activity” value with human red blood cells is “no effect”. The “MICs (range over the Gram-positive bacteria)” value was in the range of 0.25 to 2 µg/mL in data set [6] (setting [7]) and 2 to 4 µg/mL in data set [6] (without polysorbate 80).
